We go through 15 molecules from PubChem BioAssay (NCI).

What all share (assay): inhibition of tumour cell growth, NCI panel, 48 h
Assay [1] concerns DU-145 prostate.
The test system of assay [2] is HOP-92 NSCLC.
For assay [3], the system named is OVCAR-3 ovarian.
Assay [4] concerns RPMI-8226 leukemia.
Assay [5] concerns NCI-H226 lung.
In assay [6] the test system is OVCAR-8 ovarian.
For assay [7], the system named is LOX IMVI melanoma.
Assay [8] deals with MDA-MB-435.
In assay [9] the test system is EKVX NSCLC.
The test system of assay [10] is SF-539 CNS.

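Cultured in 96-well plates, cells were exposed to test compound for 48 hours across five concentrations. The concentration for 50% growth inhibition is given as GI50. Definition used: TGI = concentration required for complete inhibition of growth.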

With `CC(=O)N(O)c1ccc(-c2nc3ccccc3s2)cc1`, the TGI in assay [1] is greater than 100 µM; in assay [2] it was greater than 100 µM; in [3] it was greater than 100 µM; in [4], greater than 100 µM; in [5], 73.2 µM; in assay [6] it was greater than 100 µM. For the same molecule, the TGI in [7] and in assay [8] was greater than 100 µM each time.
In the case of `CCOC(=O)C1=C(C)N(c2ccc(OC)cc2)C2(O)C=CC(=O)C3=C(O)c4ccccc4C(=O)C312` (configuration not stated), the TGI in assay [9] stood at 23.4 µM; in assay [1] it was 28.4 µM; in assay [2], 9.75 µM; in [10], 21.2 µM; in [3], 11.7 µM; in assay [4], 10.9 µM. The TGI in assay [6] worked out at 81.1 µM; in assay [7], 22.4 µM; in assay [8], 18.7 µM.
Regarding `CC1(C)CC(=O)C2=C(C1)OC1=C(CC(C)(C)CC1=O)C2c1ccccc1[N+](=O)[O-]` (configuration not stated), the TGI in [9], in [1], in [2], in [10], in [3] and in [4] was greater than 100 µM in each case. For the same molecule, the TGI in assay [5], in assay [7] and in assay [8] was greater than 100 µM in each case.
Consider `O=C1Nc2ccccc2Nc2ccncc21`, for which the TGI in assay [9], in assay [2], in assay [10], in [3], in [4] and in assay [5] was greater than 100 µM each time. Moreover, the TGI in assay [6] and in assay [7] was greater than 100 µM in each case.
Consider `O=C(NC(=S)NC(=O)c1cc(O)c(O)c(O)c1)c1cc(O)c(O)c(O)c1`, for which the TGI in [1] is 63.8 µM; in assay [2] it was greater than 100 µM; in assay [10], greater than 100 µM; in assay [4], greater than 100 µM; in assay [5], greater than 100 µM; in [6] it was 44.5 µM. The TGI in assay [7] is 60.3 µM; in assay [8], 24.7 µM.
`O=C(NNc1nc(-c2ccccc2)cs1)C(F)(F)F`: the TGI in [9] was greater than 100 µM; in assay [1], greater than 100 µM; in assay [4], 47 µM; in assay [5], greater than 100 µM; in [6], greater than 100 µM; in [7], greater than 100 µM. For the same molecule, in [8], the TGI was greater than 100 µM.
Take `Cc1nc2ccccc2c(/C=C/c2ccc(Cl)cc2)c1C(=O)/C=C/c1ccc(Cl)cc1`: the GI50 is 1.71 µM in [10], 1.2 µM in assay [4], 1.59 µM in assay [5] and 1.22 µM in assay [7]. For the same molecule, the TGI in [10] was 3.14 µM; in assay [4], 6.34 µM; in assay [5], 3.29 µM; in [7] it was 2.55 µM.
For the molecule `CC(=O)Oc1ccc(/C=C/C(=O)O[C@@H](C(=O)O)[C@@H](OC(=O)/C=C/c2ccc(OC(C)=O)c(OC(C)=O)c2)C(=O)O)cc1OC(C)=O`, the TGI in assay [9], in assay [1], in [2], in assay [3], in assay [4] and in assay [6] was greater than 100 µM in each case. Besides, the TGI in [7] and in assay [8] was greater than 100 µM throughout.
`CSc1c(C(=O)Nc2ccc(Cl)cc2)c(N)n(N)c(=O)c1C#N`: the TGI in assay [9], in assay [1], in assay [10], in assay [3], in [4] and in [5] was greater than 100 µM in each case. In addition, the TGI in assay [6], in assay [7] and in assay [8] was greater than 100 µM throughout.
`CN(C)c1cc[n+](-c2nc(/N=C(\[O-])C(F)(F)F)nc3c2ncn3C2CC(O)C(CO)O2)cc1` (configuration not stated): the TGI in [9], in assay [1], in assay [10], in assay [3], in assay [4] and in [5] was greater than 100 µM each time. Further, the TGI in assay [6], in [7] and in assay [8] was greater than 100 µM in each case.
For the molecule `O=C(OCC(Cl)(Cl)Cl)O[C@@H]1CCCC1(c1ccccc1)c1ccccc1`, the TGI in assay [9], in assay [1], in assay [5], in assay [7] and in assay [8] was greater than 100 µM throughout.
As for `Fc1cccc(F)c1C1SCc2nc3ccc(Cl)cc3n21` (configuration not stated), the TGI in assay [9], in assay [1], in [2], in [10], in [3] and in assay [4] was greater than 100 µM throughout. Also, the TGI in assay [6], in assay [7] and in [8] was greater than 100 µM in each case.
Regarding `COc1cccc(/C=N/[N-]C(N)=O)c1[O-].[Cu+2].[OH3+].c1ccc(-c2ccccn2)nc1`, the TGI in assay [9] was greater than 78.2 µM; in assay [2] it was 29.8 µM; in [10], 67.7 µM; in [3], greater than 100 µM; in assay [4], greater than 100 µM; in assay [5] it was 88.1 µM. Further, the TGI is greater than 100 µM in assay [6] and greater than 81.3 µM in assay [7].
For `Oc1[nH]c2ccccc2c1/C=c1/cc2c(c(-c3ccc(F)cc3)n1)=Nc1ccccc1-2`, the GI50 in assay [9] is 3.01 µM; in assay [1], 0.422 µM; in assay [2], 0.162 µM; in [10], 0.477 µM; in assay [3], 0.233 µM; in assay [4], 0.406 µM. Further, the GI50 in [5] was 1.52 µM. Further, the TGI in [9] was determined as 72.7 µM; in assay [1], 2.03 µM; in assay [2] it was 0.981 µM; in assay [10], 1.81 µM; in assay [3], 0.591 µM; in [4], 2.03 µM. The molecule also had a TGI in assay [5] of 10.7 µM.
In the case of `Cc1nc2c(=S)n(C)ncc2[nH]1`, the TGI in assay [9], in assay [10], in [3], in assay [4], in [5] and in assay [6] was greater than 100 µM each time. Moreover, the TGI in assay [7] and in [8] was greater than 100 µM in each case.
